Test results: PubChem BioAssay (NCI)
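Growth conditions: 96-well plates. Treatment: test compound, 48 hours, 5 concentrations. Analysis: linear interpolation between bracketing concentrations; unreached endpoints set to highest concentration. GI50 marks 50% less growth. Definition used: TGI = concentration required for complete inhibition of growth.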

Columns and labels:
Assay in all cases: NCI tumour cell line growth inhibition, 48 h
786-0 renal = test system: 786-0 renal
COLO 205 colon = test system: COLO 205 colon
IGROV1 ovarian = test system: IGROV1 ovarian
KM12 colon = test system: KM12 colon
LOX IMVI melanoma = test system: LOX IMVI melanoma
NCI-H226 lung = test system: NCI-H226 lung
NCI-H460 lung = test system: NCI-H460 lung
OVCAR-4 ovarian = test system: OVCAR-4 ovarian
OVCAR-5 ovarian = test system: OVCAR-5 ovarian
SR leukemia = test system: SR leukemia

COc1cc(NS(=O)(=O)c2ccc(-c3cnc(C4CC4)o3)cc2)ccc1F
GI50 (786-0 renal): 694 nM
TGI (786-0 renal): 21.4 µM
GI50 (COLO 205 colon): 506 nM
TGI (COLO 205 colon): 9.57 µM
GI50 (IGROV1 ovarian): 439 nM
TGI (IGROV1 ovarian): 24.6 µM
GI50 (KM12 colon): 277 nM
TGI (KM12 colon): 18.1 µM
GI50 (LOX IMVI melanoma): 534 nM
TGI (LOX IMVI melanoma): 17.9 µM
GI50 (NCI-H226 lung): 1240 nM
TGI (NCI-H226 lung): 22.1 µM
GI50 (NCI-H460 lung): 447 nM
TGI (NCI-H460 lung): 14.4 µM
GI50 (OVCAR-4 ovarian): 2.05 µM
TGI (OVCAR-4 ovarian): 36.2 µM
GI50 (OVCAR-5 ovarian): 1150 nM
TGI (OVCAR-5 ovarian): 29.5 µM
GI50 (SR leukemia): 102 nM
TGI (SR leukemia): > 100 µM

C=C1C(=O)O[C@H]2[C@H]1CC/C(COC(=O)c1cc3ccccc3s1)=C\CC[C@@]1(C)O[C@@H]21
GI50 (786-0 renal): 1520 nM
TGI (786-0 renal): 3.44 µM
GI50 (COLO 205 colon): 1710 nM
TGI (COLO 205 colon): 3.48 µM
GI50 (IGROV1 ovarian): 1760 nM
TGI (IGROV1 ovarian): 3.58 µM
GI50 (KM12 colon): 1780 nM
TGI (KM12 colon): 4.08 µM
GI50 (LOX IMVI melanoma): 206 nM
TGI (LOX IMVI melanoma): 0.509 µM
GI50 (NCI-H226 lung): 2000 nM
TGI (NCI-H226 lung): 4.63 µM
GI50 (NCI-H460 lung): 2200 nM
TGI (NCI-H460 lung): 5.55 µM
GI50 (OVCAR-4 ovarian): 2.08 µM
TGI (OVCAR-4 ovarian): 4.57 µM
GI50 (OVCAR-5 ovarian): 2020 nM
TGI (OVCAR-5 ovarian): 4.35 µM
GI50 (SR leukemia): 520 nM
TGI (SR leukemia): 4.54 µM

Cc1[nH]c2ccccc2c1C1Cc2ccccc2N1C(=O)/C(Cl)=C/c1ccccc1 (stereo not given)
TGI (786-0 renal): > 100 µM
TGI (COLO 205 colon): > 100 µM
TGI (IGROV1 ovarian): > 100 µM
TGI (KM12 colon): > 100 µM
TGI (LOX IMVI melanoma): > 100 µM
TGI (NCI-H226 lung): > 100 µM
TGI (NCI-H460 lung): > 100 µM
TGI (OVCAR-4 ovarian): > 100 µM
TGI (OVCAR-5 ovarian): > 100 µM
TGI (SR leukemia): > 100 µM

COc1ccc(OC)c(C(=O)c2oc3ccc(Br)cc3c2N)c1
GI50 (786-0 renal): 581 nM
TGI (786-0 renal): 47.4 µM
GI50 (COLO 205 colon): 406 nM
TGI (COLO 205 colon): 2.11 µM
GI50 (IGROV1 ovarian): 2130 nM
TGI (IGROV1 ovarian): > 87.4 µM
GI50 (KM12 colon): 348 nM
TGI (KM12 colon): 18.4 µM
GI50 (LOX IMVI melanoma): 581 nM
TGI (LOX IMVI melanoma): 22.4 µM
GI50 (NCI-H226 lung): 2380 nM
TGI (NCI-H226 lung): > 100 µM
GI50 (NCI-H460 lung): 375 nM
TGI (NCI-H460 lung): 12.4 µM
GI50 (OVCAR-4 ovarian): 3.61 µM
TGI (OVCAR-4 ovarian): > 100 µM
GI50 (OVCAR-5 ovarian): 1560 nM
TGI (OVCAR-5 ovarian): > 51.7 µM
GI50 (SR leukemia): 193 nM
TGI (SR leukemia): 19.1 µM

COc1ccccc1Cn1cc2c(c1-c1ccccc1)CCc1cnoc1-2
GI50 (786-0 renal): 4040 nM
TGI (786-0 renal): > 100 µM
GI50 (COLO 205 colon): 2560 nM
TGI (COLO 205 colon): 7.62 µM
GI50 (IGROV1 ovarian): 3600 nM
TGI (IGROV1 ovarian): > 100 µM
GI50 (KM12 colon): 1760 nM
TGI (KM12 colon): > 100 µM
GI50 (LOX IMVI melanoma): 3040 nM
TGI (LOX IMVI melanoma): > 100 µM
GI50 (NCI-H226 lung): 8520 nM
TGI (NCI-H226 lung): > 100 µM
GI50 (NCI-H460 lung): 2650 nM
TGI (NCI-H460 lung): 18.1 µM
GI50 (OVCAR-4 ovarian): 8.56 µM
TGI (OVCAR-4 ovarian): > 100 µM
GI50 (OVCAR-5 ovarian): 9820 nM
TGI (OVCAR-5 ovarian): > 100 µM
GI50 (SR leukemia): 491 nM
TGI (SR leukemia): 56.5 µM

COc1cc2c3c(n(CCCCOC(=O)C(Cl)(Cl)Cl)c(=O)c2cc1OC)-c1cc2c(cc1C3=O)OCO2
GI50 (786-0 renal): 17200 nM
TGI (786-0 renal): 41.3 µM
GI50 (COLO 205 colon): > 100000 nM
TGI (COLO 205 colon): > 100 µM
GI50 (IGROV1 ovarian): 14400 nM
TGI (IGROV1 ovarian): > 100 µM
GI50 (KM12 colon): > 100000 nM
TGI (KM12 colon): > 100 µM
GI50 (LOX IMVI melanoma): 35900 nM
TGI (LOX IMVI melanoma): > 100 µM
GI50 (NCI-H226 lung): 67600 nM
TGI (NCI-H226 lung): > 100 µM
GI50 (NCI-H460 lung): 2410 nM
TGI (NCI-H460 lung): > 100 µM
GI50 (OVCAR-4 ovarian): > 100 µM
TGI (OVCAR-4 ovarian): > 100 µM
GI50 (OVCAR-5 ovarian): > 100000 nM
TGI (OVCAR-5 ovarian): > 100 µM
GI50 (SR leukemia): 1140 nM
TGI (SR leukemia): 15 µM
